The source of these data is patent US10759783B2, “Biaryl inhibitors of Bruton'S tyrosine kinase” (BIOGEN MA INC., priority 2013, dated 2020).

Where two headings read alike, the source gives them in different places.

One test deals with T1, BTK enzyme (Homo sapiens, UniProt Q06187).
T1 construct: purchased Upstate 14-552
Kind of test: In vitro BTK kinase assay: BTK-POLYGAT-LS assay. Type of test: biochemical. The settings on record: ATP 10 μM, read-out: IC50 (10uMATP). A digest of the protocol:
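Human BTK activity was measured with final 10 μM ATP and 100 nM polyGAT substrate in pH 7.5 Tris buffer with 10 mM MgCl2, DTT, Triton X-100 and casein.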

Test [1] concerns the target BTK (phospho-BTK) in human whole blood (Homo sapiens, UniProt Q06187). Kind of test: In vitro PD assay in human whole blood (pBTK assay).

Sequence of BTK (phospho-BTK) in human whole blood (Q06187 whole entry): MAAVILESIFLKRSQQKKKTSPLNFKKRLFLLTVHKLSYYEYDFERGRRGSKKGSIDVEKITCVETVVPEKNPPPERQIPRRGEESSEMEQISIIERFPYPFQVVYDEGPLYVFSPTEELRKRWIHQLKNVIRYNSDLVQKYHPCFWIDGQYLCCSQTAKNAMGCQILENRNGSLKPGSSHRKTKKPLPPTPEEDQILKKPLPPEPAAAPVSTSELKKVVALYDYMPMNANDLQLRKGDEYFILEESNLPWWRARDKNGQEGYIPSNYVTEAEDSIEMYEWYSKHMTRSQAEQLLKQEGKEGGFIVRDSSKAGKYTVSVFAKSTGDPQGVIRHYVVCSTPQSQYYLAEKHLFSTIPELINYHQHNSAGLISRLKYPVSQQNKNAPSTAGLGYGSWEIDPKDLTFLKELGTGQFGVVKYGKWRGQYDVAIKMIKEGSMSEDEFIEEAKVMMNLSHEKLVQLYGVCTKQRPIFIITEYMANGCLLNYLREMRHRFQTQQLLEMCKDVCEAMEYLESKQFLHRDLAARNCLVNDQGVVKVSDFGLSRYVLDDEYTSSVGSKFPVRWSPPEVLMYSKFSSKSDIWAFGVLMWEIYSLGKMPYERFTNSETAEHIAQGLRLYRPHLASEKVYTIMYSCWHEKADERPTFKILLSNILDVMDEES
T1 sequence (Q06187 whole entry): as above

The IC50 is the concentration that gives 50% inhibition. Regarding `COCCn1cc(Nc2nccc(-c3ccc4c(c3)CCCCC4NC(=O)N3CCC(C(C)C)C3)n2)cn1` (stereo not shown) [Example I-183, 3-Isopropyl-N-(2-(2-((1-(2-methoxyethyl)-1H-pyrazol-4-yl)amino)pyrimidin-4-yl)-6,7,8,9-tetrahydro-5H-benzo[7]annulen-5-yl)pyrrolidine-1-carboxamide], the concentration for half-maximal inhibition (IC50) at BTK enzyme is less than 10 nM; in test [1] it was less than 500 nM.
Regarding `CC(C)OC1CN(C(=O)NC2CCCc3cc(-c4ccnc(Nc5cnn(C6CCN(C)CC6)c5)n4)ccc32)C1` (stereo not shown) [Example I-326, 3-isopropoxy-N-[6-[2-[[1-(1-methyl-4-piperidyl)pyrazol-4-yl]amino]pyrimidin-4-yl]tetralin-1-yl]azetidine-1-carboxamide], the IC50 was less than 10 nM at BTK enzyme and less than 500 nM in test [1].
Consider `Cc1cc(-c2ccnc(Nc3cnn(C4CCN(C)CC4)c3)n2)ccc1CN1Cc2nc(C(C)(C)C)sc2C1=O` [Example I-289, 2-tert-butyl-5-[[2-methyl-4-[2-[[1-(1-methyl-4-piperidyl)pyrazol-4-yl]amino]pyrimidin-4-yl]phenyl]methyl]-4H-pyrrolo[3,4-d]thiazol-6-one], for which the 50% inhibitory concentration (IC50) on BTK enzyme was less than 10 nM; in test [1] it was less than 500 nM.
With `CC(C)n1cc(Nc2nccc(-c3ccc(CNC(=O)N4CCC(C(C)(C)C)C4)c(C(F)(F)F)c3)n2)cn1` (stereo not shown) [Example I-293, 3-tert-butyl-N-[[4-[2-[(1-isopropylpyrazol-4-yl)amino]pyrimidin-4-yl]-2-(trifluoromethyl)phenyl]methyl]pyrrolidine-1-carboxamide], the results for the IC50 (on BTK enzyme; in test [1]) were less than 10 nM and less than 500 nM, respectively.
Take `Cc1cc(-c2cc(Nc3cnn(C)c3)ncn2)ccc1CNC(=O)c1cnc(C(C)(C)C)s1` [Example I-64, 2-(tert-butyl)-N-(2-methyl-4-(6-((1-methyl-1H-pyrazol-4-yl)amino)pyrimidin-4-yl)benzyl)thiazole-5-carboxamide]: the IC50 on BTK enzyme was less than 10 nM; in test [1], 1500 to 10000 nM.
The corresponding values for `CNC(=O)C(C)(C)n1cc(Nc2nccc(-c3ccc(CNC(=O)N4CC(OC(C)C)C4)c(C)c3)n2)cn1` [Example I-212, 3-isopropoxy-N-(2-methyl-4-(2-((1-(2-methyl-1-(methylamino)-1-oxopropan-2-yl)-1H-pyrazol-4-yl)amino)pyrimidin-4-yl)benzyl)azetidine-1-carboxamide] are less than 10 nM and less than 500 nM.
Regarding `Cc1cc(-c2ccnc(Nc3cnn(C4CC(C(=O)O)C4)c3)n2)ccc1CNC(=O)c1cnc(C(C)(C)C)s1` (stereo not shown) [Example I-44, 3-(4-((4-(4-((2-(tert-butyl)thiazole-5-carboxamido)methyl)-3-methylphenyl)pyrimidin-2-yl)amino)-1H-pyrazol-1-yl)cyclobutanecarboxylic acid], the IC50 at BTK enzyme is less than 10 nM; in test [1], less than 500 nM.
As for `Cc1cc(-c2cc(Nc3cc4n(n3)CCN(C)C4)ncn2)ccc1CNC(=O)N1CC[C@@H](C(C)(C)C)C1` [Example I-244, (S)-3-(tert-butyl)-N-(2-methyl-4-(6-((5-methyl-4,5,6,7-tetrahydropyrazolo[1,5-a]pyrazin-2-yl)amino)pyrimidin-4-yl)benzyl)pyrrolidine-1-carboxamide], the IC50 was less than 10 nM on BTK enzyme and less than 500 nM in test [1].
`Cc1cc(-c2ccnc(Nc3cnn(C(C)C)c3)n2)ccc1CNC(=O)c1cnc(C(C)(C)C)s1` [Example I-41, 2-(tert-butyl)-N-(4-(2-((1-isopropyl-1H-pyrazol-4-yl)amino)pyrimidin-4-yl)-2-methylbenzyl)thiazole-5-carboxamide]: the values for the IC50 (at BTK enzyme; in test [1]) were less than 10 nM and less than 500 nM, respectively.
With `Cc1cc(-c2ccnc(Nc3cnn([C@@H]4CCNC[C@H]4F)c3)n2)ccc1CNC(=O)N1CC(OC(C)C)C1` (relative stereo) [Example I-220], the IC50 on BTK enzyme was less than 10 nM; in test [1] (read-out: pBTK IC50, human whole blood, 37° C. for 30 min) it was less than 500 nM.
Consider `CC(C)OC1CN(C(=O)NC2CCCCc3cc(-c4ccnc(Nc5cnn(C6CCN(C)CC6F)c5)n4)ccc32)C1` (stereo not shown) [Example I-348, N-[2-[2-[[1-(3-fluoro-1-methyl-4-piperidyl)pyrazol-4-yl]amino]pyrimidin-4-yl]-6,7,8,9-tetrahydro-5H-benzo[7]annulen-5-yl]-3-isopropoxy-azetidine-1-carboxamide], for which the IC50 at BTK enzyme is less than 10 nM; in test [1], less than 500 nM.
Turning to `Cc1cc(-c2ccnc(Nc3cnn(C[C@@H](O)CN)c3)n2)ccc1CNC(=O)c1cnc(C(C)(C)C)s1` [Example I-129, (S)—N-(4-(2-((1-(3-amino-2-hydroxypropyl)-1H-pyrazol-4-yl)amino)pyrimidin-4-yl)-2-methylbenzyl)-2-(tert-butyl)thiazole-5-carboxamide], the figures for the 50% inhibitory concentration (IC50) (on BTK enzyme; in test [1]) were less than 10 nM and 500 to 1500 nM, respectively.
The corresponding values for `Cc1cc(-c2cc(Nc3cc4n(n3)CCN(C)C4C)ncn2)ccc1CNC(=O)c1cnn(C(C)(C)C)c1` (stereo not shown) [Example I-282, 1-tert-butyl-N-[[4-[6-[(4,5-dimethyl-6,7-dihydro-4H-pyrazolo[1,5-a]pyrazin-2-yl)amino]pyrimidin-4-yl]-2-methyl-phenyl]methyl]pyrazole-4-carboxamide] are less than 10 nM and less than 500 nM.
As to `CCn1cc(Nc2nccc(-c3ccc(CNC(=O)N4CC(OC(C)C)C4)c(C)c3)n2)cn1` [Example I-360, N-[[4-[2-[(1-ethylpyrazol-4-yl)amino]pyrimidin-4-yl]-2-methyl-phenyl]methyl]-3-isopropoxy-azetidine-1-carboxamideacid], the IC50 was less than 10 nM at BTK enzyme and less than 500 nM in test [1].
Regarding `Cc1cc(-c2ccnc(Nc3cnn(C)c3)n2)ccc1CNC(=O)c1nc2c(s1)CCCC2` [Example I-9, N-(2-methyl-4-(2-((1-methyl-1H-pyrazol-4-yl)amino)pyrimidin-4-yl)benzyl)-4,5,6,7-tetrahydrobenzo[d]thiazole-2-carboxamide], the results for the IC50 (at BTK enzyme; in test [1]) were less than 10 nM and 500 to 1500 nM, respectively.
Regarding `COC1CN(C(=O)NC2CCCCc3cc(-c4ccnc(Nc5cnn(C)c5)n4)ccc32)C1` (stereo not shown) [Example I-339, 3-methoxy-N-[2-[2-[(1-methylpyrazol-4-yl)amino]pyrimidin-4-yl]-6,7,8,9-tetrahydro-5H-benzo[7]annulen-5-yl]azetidine-1-carboxamide], the IC50 at BTK enzyme is 10 to 99 nM; in test [1] it was less than 500 nM.
For `Cc1cc(-c2ccnc(Nc3cnn(C4CCN(C)CC4)c3)n2)ccc1CNC(=O)c1cc(C(C)(C)C)on1` [Example I-196, 5-(tert-butyl)-N-(2-methyl-4-(2-((1-(1-methylpiperidin-4-yl)-1H-pyrazol-4-yl)amino)pyrimidin-4-yl)benzyl)isoxazole-3-carboxamide] the same measures were less than 10 nM and less than 500 nM.
Take `Cc1cc(-c2cc(Nc3ccc(N4CCN(C)CC4)cn3)ncn2)ccc1CNC(=O)c1ccn(C(C)(C)C)n1` [Example I-226, 1-(tert-butyl)-N-(2-methyl-4-(6-((5-(4-methylpiperazin-1-yl)pyridin-2-yl)amino)pyrimidin-4-yl)benzyl)-1H-pyrazole-3-carboxamide]: the figures for the 50% inhibitory concentration (IC50) (at BTK enzyme; in test [1]) were less than 10 nM and less than 500 nM, respectively.
Take `Cc1cc(-c2ccnc(Nc3cnn(C)c3)n2)ccc1CNC(=O)c1nc2c(s1)CCC2` [Example I-10, N-(2-methyl-4-(2-((1-methyl-1H-pyrazol-4-yl)amino)pyrimidin-4-yl)benzyl)-5,6-dihydro-4H-cyclopenta[d]thiazole-2-carboxamide]: the results for the IC50 (at BTK enzyme; in test [1]) were less than 10 nM and less than 500 nM, respectively.
For the compound `CC(C)n1cc(Nc2nccc(-c3ccc(CNC(=O)N4CC(OC(C)(C)C)C4)c(C(F)(F)F)c3)n2)cn1` [Example I-199, 3-(tert-butoxy)-N-(4-(2-((1-isopropyl-1H-pyrazol-4-yl)amino)pyrimidin-4-yl)-2-(trifluoromethyl)benzyl)azetidine-1-carboxamide], the IC50 is less than 10 nM on BTK enzyme and less than 500 nM in test [1].
Take `Cc1cc(-c2ccnc(Nc3cnn(C)c3)n2)ccc1CNC(=O)N1CC[C@@H](C(C)(C)C)C1` [Example I-254]: the IC50 at BTK enzyme was less than 10 nM; in test [1], less than 500 nM.
As to `Cc1cc(-c2ccnc(Nc3cnn([C@H]4CCN(C)C4)c3)n2)ccc1CNC(=O)c1cnc(C(C)(C)C)s1` [Example I-125, (S)-2-(tert-butyl)-N-(2-methyl-4-(2-((1-(1-methylpyrrolidin-3-yl)-1H-pyrazol-4-yl)amino)pyrimidin-4-yl)benzyl)thiazole-5-carboxamide], the IC50 is less than 10 nM at BTK enzyme and less than 500 nM in test [1].
With `Cc1cc(-c2ccnc(Nc3cnn(CCO)c3)n2)ccc1CNC(=O)N1CC(OC(C)(C)C)C1` [Example I-214, 3-(tert-butoxy)-N-(4-(2-((1-(2-hydroxyethyl)-1H-pyrazol-4-yl)amino)pyrimidin-4-yl)-2-methylbenzyl)azetidine-1-carboxamide], the IC50 on BTK enzyme is less than 10 nM; in test [1], less than 500 nM.
Take `CC(C)(C)OC1CN(C(=O)NCc2ccc(-c3ccnc(Nc4cnn(CCO)c4)n3)cc2C(F)(F)F)C1` [Example I-205, 3-(tert-butoxy)-N-(4-(2-((1-(2-hydroxyethyl)-1H-pyrazol-4-yl)amino)pyrimidin-4-yl)-2-(trifluoromethyl)benzyl)azetidine-1-carboxamide]: the IC50 was less than 10 nM at BTK enzyme and less than 500 nM in test [1].
The corresponding values for `COCCn1cc(Nc2nccc(-c3ccc(CNC(=O)N4CC(OC(C)(C)C)C4)c(C(F)(F)F)c3)n2)cn1` [Example I-204, 3-(tert-butoxy)-N-(4-(2-((1-(2-methoxyethyl)-1H-pyrazol-4-yl)amino)pyrimidin-4-yl)-2-(trifluoromethyl)benzyl)azetidine-1-carboxamide] are less than 10 nM and less than 500 nM.
On to `CCn1cc(Nc2nccc(-c3ccc4c(c3)CCCCC4NC(=O)N3CC(OC(C)C)C3)n2)cn1` (stereo not shown) [Example I-166, N-(2-(2-((1-ethyl-1H-pyrazol-4-yl)amino)pyrimidin-4-yl)-6,7,8,9-tetrahydro-5H-benzo[7]annulen-5-yl)-3-isopropoxyazetidine-1-carboxamide], for which the values for the IC50 (on BTK enzyme; in test [1]) were less than 10 nM and less than 500 nM, respectively.
